Source: ChEMBL document CHEMBL1201862, “PubChem BioAssay data set” (2004)
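Five concentrations, 48 hours, 96-well plates. GI50 marks 50% less growth.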 The source made the active and inactive calls. Rule as the data show it: active = GI50 up to about 1.1 µM and inactive = higher.

How the values were obtained:
Test in all cases: NCI-60 cell line screen, 48 h
[1] = system: OVCAR-5
[2] = system: SNB-19
[3] = system: EKVX
[4] = system: M19-MEL
[5] = system: DLD-1
[6] = system: HOP-92
[7] = system: DMS-114
[8] = system: ACHN
[9] = system: KM12
[10] = system: NCI-H23
[11] = system: RPMI-8226
[12] = system: MOLT-4
[13] = system: CCRF-CEM
[14] = system: NCI-H522
[15] = system: Malme-3M
[16] = system: XF498
[17] = system: DU-145
[18] = system: BT-549
[19] = system: HL-60
[20] = system: OVCAR-3
[21] = system: NCI-H226
[22] = system: HCT-15
[23] = system: NCI/ADR-RES
[24] = system: HOP-62
[25] = system: RXF 393
[26] = system: SF-295
[27] = system: HCT-116
[28] = system: OVCAR-4
[29] = system: K562
[30] = system: HT-29
[31] = system: PC-3
[32] = system: UACC-257
[33] = system: KM-20L2
[34] = system: A549
[35] = system: M14
[36] = system: SK-MEL-5
[37] = system: SNB-78
[38] = system: LOX IMVI
[39] = system: SR
[40] = system: COLO 205
[41] = system: OVCAR-8
[42] = system: HCC 2998
[43] = system: TK-10
[44] = system: 786-0
[45] = system: DMS-273
[46] = system: SK-MEL-2
[47] = system: SN12C
[48] = system: NCI-H460
[49] = system: SK-MEL-28
[50] = system: SNB-75
[51] = system: UO-31
[52] = system: CAKI-1
[53] = system: SF-268
[54] = system: SW-620
[55] = system: SF-539
[56] = system: A498
[57] = system: U-251
[58] = system: HOP-18

SMILES: CCc1ccc(NCc2cc(OC)c(OC)c(OC)c2)cc1
- GI50 [1]: 4.9 µM (inactive)
- GI50 [2]: 0.902 µM (active)
- GI50 [3]: 4.95 µM (inactive)
- GI50 [4]: 0.579 µM (active)
- GI50 [5]: 0.592 µM (active)
- GI50 [6]: 1.09 µM (active)
- GI50 [7]: 0.586 µM (active)
- GI50 [8]: 3.51 µM (inactive)
- GI50 [9]: 0.0537 µM (active)
- GI50 [10]: 0.532 µM (active)
- GI50 [11]: 0.303 µM (active)
- GI50 [12]: 0.159 µM (active)
- GI50 [13]: 0.158 µM (active)
- GI50 [14]: 0.109 µM (active)
- GI50 [15]: 0.256 µM (active)
- GI50 [16]: 1.69 µM (inactive)
- GI50 [17]: 0.399 µM (active)
- GI50 [18]: < 0.01 µM (active)
- GI50 [19]: 0.0603 µM (active)
- GI50 [20]: 0.123 µM (active)
- GI50 [21]: 4.65 µM (inactive)
- GI50 [22]: 0.0847 µM
- GI50 [23]: < 0.0416 µM (active)
- GI50 [24]: 0.366 µM (active)
- GI50 [25]: 0.224 µM (active)
- GI50 [26]: 0.109 µM (active)
- GI50 [27]: 0.122 µM (active)
- GI50 [28]: 26.7 µM (inactive)
- GI50 [29]: 0.0728 µM (active)
- GI50 [30]: 0.105 µM (active)
- GI50 [31]: 0.186 µM (active)
- GI50 [32]: 17.2 µM (inactive)
- GI50 [33]: 0.388 µM (active)

SMILES: CCCCCC(=O)c1ccc2[nH]c3c(C)cc([N+](=O)[O-])c(C)c3c2c1
- GI50 [1]: > 100 µM (inactive)
- GI50 [34]: 49.4 µM (inactive)
- GI50 [2]: > 100 µM (inactive)
- GI50 [35]: 70 µM (inactive)
- GI50 [36]: > 100 µM (inactive)
- GI50 [37]: > 100 µM (inactive)
- GI50 [38]: > 100 µM (inactive)
- GI50 [3]: > 100 µM (inactive)
- GI50 [39]: 56.8 µM (inactive)
- GI50 [4]: > 100 µM (inactive)
- GI50 [7]: > 100 µM (inactive)
- GI50 [40]: 59.6 µM (inactive)
- GI50 [41]: 75.5 µM (inactive)
- GI50 [42]: > 100 µM (inactive)
- GI50 [43]: 26.6 µM (inactive)
- GI50 [44]: 36.1 µM (inactive)
- GI50 [8]: > 100 µM (inactive)
- GI50 [45]: 27.9 µM (inactive)
- GI50 [46]: > 100 µM (inactive)
- GI50 [9]: > 100 µM (inactive)
- GI50 [10]: 95.3 µM (inactive)
- GI50 [11]: > 100 µM (inactive)
- GI50 [47]: > 100 µM (inactive)
- GI50 [12]: > 100 µM (inactive)
- GI50 [13]: 91.2 µM (inactive)
- GI50 [48]: 82 µM (inactive)
- GI50 [14]: > 100 µM (inactive)
- GI50 [49]: > 100 µM (inactive)
- GI50 [50]: > 100 µM (inactive)
- GI50 [15]: > 100 µM (inactive)
- GI50 [16]: > 100 µM (inactive)
- GI50 [51]: > 100 µM (inactive)
- GI50 [52]: > 100 µM (inactive)
- GI50 [19]: 98.2 µM (inactive)
- GI50 [20]: 67.6 µM (inactive)
- GI50 [21]: > 100 µM (inactive)
- GI50 [22]: > 100 µM
- GI50 [53]: > 100 µM (inactive)
- GI50 [24]: > 100 µM (inactive)
- GI50 [26]: 94.6 µM (inactive)
- GI50 [27]: 90.8 µM (inactive)
- GI50 [54]: 80.2 µM (inactive)
- GI50 [55]: 45.6 µM (inactive)
- GI50 [28]: 89.3 µM (inactive)
- GI50 [29]: 25.4 µM (inactive)
- GI50 [30]: 75 µM (inactive)
- GI50 [32]: > 100 µM (inactive)

SMILES: O=C(c1ccc(Cl)cc1)C1OC12C(=O)Nc1c(Cl)cc(Cl)cc12 (stereo not given)
- GI50 [1]: > 100 µM (inactive)
- GI50 [34]: 49.9 µM (inactive)
- GI50 [2]: 54.3 µM (inactive)
- GI50 [36]: 37.5 µM (inactive)
- GI50 [38]: 39.4 µM (inactive)
- GI50 [3]: 19.8 µM (inactive)
- GI50 [56]: > 100 µM (inactive)
- GI50 [5]: 87.3 µM (inactive)
- GI50 [41]: 23 µM (inactive)
- GI50 [42]: > 100 µM (inactive)
- GI50 [43]: 51.2 µM (inactive)
- GI50 [44]: 49 µM (inactive)
- GI50 [8]: 92.9 µM (inactive)
- GI50 [45]: 65.5 µM (inactive)
- GI50 [46]: 67.5 µM (inactive)
- GI50 [9]: 48.6 µM (inactive)
- GI50 [57]: 76.7 µM (inactive)
- GI50 [10]: 30.1 µM (inactive)
- GI50 [11]: 14.9 µM (inactive)
- GI50 [47]: 54 µM (inactive)
- GI50 [13]: 22.4 µM (inactive)
- GI50 [48]: 50.8 µM (inactive)
- GI50 [49]: 94 µM (inactive)
- GI50 [50]: 25.9 µM (inactive)
- GI50 [15]: 71.9 µM (inactive)
- GI50 [16]: 15.3 µM (inactive)
- GI50 [51]: 63.7 µM (inactive)
- GI50 [20]: 21.2 µM (inactive)
- GI50 [21]: 28.3 µM (inactive)
- GI50 [22]: 42.1 µM
- GI50 [53]: 51.9 µM (inactive)
- GI50 [24]: > 100 µM (inactive)
- GI50 [26]: 46.3 µM (inactive)
- GI50 [54]: 40 µM (inactive)
- GI50 [55]: 75 µM (inactive)
- GI50 [29]: 22.3 µM (inactive)
- GI50 [30]: 41.2 µM (inactive)
- GI50 [58]: 36.2 µM (inactive)
- GI50 [32]: 26.9 µM (inactive)
- GI50 [33]: 67.5 µM (inactive)
